Conditions: Liquid, Vibrating tube method

Cc1ccncc1 [4-methylpyridine]
mass density [kg/m3]
Conditions | 298.15 K | 308.15 K | 318.15 K | 328.15 K
2130 kPa | 951.2 | 942.3 | 933.3 | 924.3
4150 kPa | 952.5 | 943.7 | 934.7 | 925.8
6180 kPa | 953.8 | 945 | 936.1 | 927.3
8210 kPa | 955.1 | 946.4 | 937.4 | 928.7
10230 kPa | 956.3 | 947.7 | 938.9 | 930.2
11250 kPa | 956.9 | 948.3 | 939.5 | 930.9
12260 kPa | 957.5 | 949 | 940.2 | 931.6
14290 kPa | 958.8 | 950.3 | 941.6 | 933
16310 kPa | 960 | 951.5 | 942.9 | 934.4
18340 kPa | 961.2 | 952.8 | 944.2 | 935.7
20370 kPa | 962.3 | 954 | 945.5 | 937.1
22390 kPa | 963.5 | 955.2 | 946.7 | 938.4
24420 kPa | 964.6 | 956.4 | 948 | 939.7
26450 kPa | 965.8 | 957.6 | 949.2 | 941.1
28470 kPa | 966.9 | 958.8 | 950.5 | 942.3
29490 kPa | 967.4 | 959.3 | 951.1 | 943
30500 kPa | 968 | 959.9 | 951.7 | 943.6
32530 kPa | 969.1 | 961.1 | 952.9 | 944.8
34550 kPa | 970.2 | 962.2 | 954 | 946.1
36580 kPa | 971.3 | 963.3 | 955.2 | 947.3
38600 kPa | 972.3 | 964.4 | 956.4 | 948.5
39620 kPa | 972.8 | 965 | 957 | 949.1

c1ccncc1 [pyridine]
mass density [kg/m3]
Conditions | 298.15 K | 308.15 K | 318.15 K | 328.15 K
2130 kPa | 979 | 969.2 | 959.3 | 949.2
4150 kPa | 980.4 | 970.6 | 960.8 | 950.7
6180 kPa | 981.8 | 972.1 | 962.3 | 952.3
8210 kPa | 983.2 | 973.5 | 963.7 | 953.9
10230 kPa | 984.5 | 974.9 | 965.2 | 955.4
11250 kPa | 985.1 | 975.6 | 966 | 956.2
12260 kPa | 985.8 | 976.3 | 966.7 | 956.9
14290 kPa | 987.1 | 977.6 | 968.1 | 958.4
16310 kPa | 988.3 | 978.9 | 969.5 | 959.9
18340 kPa | 989.6 | 980.3 | 970.9 | 961.3
20370 kPa | 990.8 | 981.6 | 972.2 | 962.8
22390 kPa | 992.1 | 982.8 | 973.6 | 964.2
24420 kPa | 993.3 | 984.1 | 974.9 | 965.6
26450 kPa | 994.5 | 985.4 | 976.2 | 967
28470 kPa | 995.7 | 986.7 | 977.6 | 968.3
29490 kPa | 996.3 | 987.2 | 978.2 | 969
30500 kPa | 996.9 | 987.8 | 978.8 | 969.7
32530 kPa | 998 | 989 | 980.1 | 971
34550 kPa | 999.1 | 990.3 | 981.4 | 972.3
36580 kPa | 1000.3 | 991.5 | 982.6 | 973.6
38600 kPa | 1001.4 | 992.6 | 983.8 | 975
39620 kPa | 1002 | 993.2 | 984.4 | 975.6

Cc1ccccn1 [2-methylpyridine]
mass density [kg/m3]
Conditions | 298.15 K | 308.15 K | 318.15 K | 328.15 K
2130 kPa | 941.2 | 932.1 | 922.8 | 913.5
4150 kPa | 942.5 | 933.5 | 924.3 | 915.1
6180 kPa | 943.9 | 935 | 925.8 | 916.7
8210 kPa | 945.3 | 936.4 | 927.3 | 918.3
10230 kPa | 946.6 | 937.8 | 928.8 | 919.8
11250 kPa | 947.2 | 938.5 | 929.5 | 920.5
12260 kPa | 947.9 | 939.1 | 930.2 | 921.3
14290 kPa | 949.2 | 940.5 | 931.6 | 922.8
16310 kPa | 950.5 | 941.9 | 933 | 924.3
18340 kPa | 951.7 | 943.2 | 934.4 | 925.7
20370 kPa | 953 | 944.5 | 935.8 | 927.2
22390 kPa | 954.2 | 945.8 | 937.1 | 928.6
24420 kPa | 955.4 | 947 | 938.5 | 930
26450 kPa | 956.6 | 948.3 | 939.8 | 931.4
28470 kPa | 957.7 | 949.5 | 941.1 | 932.7
29490 kPa | 958.3 | 950.1 | 941.7 | 933.4
30500 kPa | 958.9 | 950.8 | 942.4 | 934.1
32520 kPa | 960.1 | 952 | 943.7 | 935.4
34550 kPa | 961.2 | 953.2 | 944.9 | 936.8
36580 kPa | 962.4 | 954.3 | 946.1 | 938
38600 kPa | 963.5 | 955.5 | 947.3 | 939.3
39620 kPa | 964 | 956.1 | 947.9 | 940

Cc1cccnc1 [3-methylpyridine]
mass density [kg/m3]
Conditions | 298.15 K | 308.15 K | 318.15 K | 328.15 K
2130 kPa | 953.2 | 944.3 | 935.3 | 926.3
4150 kPa | 954.5 | 945.7 | 936.7 | 927.8
6180 kPa | 955.8 | 947.1 | 938.1 | 929.2
8210 kPa | 957.1 | 948.4 | 939.4 | 930.7
10230 kPa | 958.4 | 949.7 | 940.9 | 932.2
11250 kPa | 959 | 950.4 | 941.6 | 932.9
12260 kPa | 959.6 | 951 | 942.3 | 933.6
14290 kPa | 960.8 | 952.3 | 943.6 | 935
16310 kPa | 962.1 | 953.6 | 944.9 | 936.4
18340 kPa | 963.3 | 954.8 | 946.2 | 937.7
20370 kPa | 964.4 | 956.1 | 947.5 | 939.1
22390 kPa | 965.6 | 957.3 | 948.8 | 940.4
24420 kPa | 966.7 | 958.5 | 950.1 | 941.7
26450 kPa | 967.9 | 959.7 | 951.3 | 943.1
28470 kPa | 969 | 960.9 | 952.6 | 944.4
29490 kPa | 969.6 | 961.5 | 953.2 | 945
30500 kPa | 970.1 | 962 | 953.8 | 945.7
32530 kPa | 971.2 | 963.2 | 955 | 946.9
34550 kPa | 972.3 | 964.3 | 956.2 | 948.2
36580 kPa | 973.4 | 965.4 | 957.4 | 949.4
38600 kPa | 974.5 | 966.5 | 958.5 | 950.6
39620 kPa | 975 | 967.1 | 959.1 | 951.2

— the NIST ThermoML archive (doi:10.1016/j.jct.2009.07.006)
